Data: patent publication US20240077423A1, “A TRANSCRIPTIONAL REGULATOR SPECIFICALLY RESPONDING TO D-2-HYDROXYGLUTARATE AND APPLICATION THEREOF” (SHANDONG UNIVERSITY, priority 2021, published 2024)
Entries after “also recorded” stand apart in the source; their conditions may differ.

T1: DhdR (Achromobacter denitrificans NBRC 15125)
T1 chain: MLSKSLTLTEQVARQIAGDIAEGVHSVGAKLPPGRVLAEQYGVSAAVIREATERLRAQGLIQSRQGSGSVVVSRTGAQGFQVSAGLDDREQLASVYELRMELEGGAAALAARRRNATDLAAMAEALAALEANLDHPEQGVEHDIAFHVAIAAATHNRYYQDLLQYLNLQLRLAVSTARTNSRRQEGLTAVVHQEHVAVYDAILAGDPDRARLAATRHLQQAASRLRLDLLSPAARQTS


Key:
binding of DhdR to dhdO = assay: Analysis of DhdR effector by electrophoretic mobility shift assays; design: species or system Achromobacter denitrificans NBRC 15125; settings: 40 mM compound, 70 nM DhdR, dhdO target DNA, EMSA, FIG. 2
Procedure: DhdR is incubated with different compounds (D-2-HG, L-2-HG, D-malate, D-lactate, glutarate, 2-ketoglutarate, or pyruvate) respectively. Then, the target DNA fragment dhdO is added. The influence on the binding capacity of DhdR and the target DNA fragment dhdO in the presence of the different compounds is analyzed through electrophoresis separation, staining, and imaging.
(§1) The dhdO nucleotide fragment obtained in step (2) above was diluted to 100 nM using binding buffer, and the purified DhdR protein was diluted to 2000 nM. 70 nM purified DhdR protein was first incubated with 40 mM different compounds (D-2-HG, L-2-HG, D-malate, D-lactate, glutarate, 2-ketoglutarate, or pyruvate) at 30° C. for 15 minutes in 18 μL binding buffer. Subsequently, 2 μL of 100 nM dhdO was added and incubated at 30° C. for another 30 min. 10 μL of the sample was analyzed by electrophoresis with 6% native polyacrylamide at 170 V for 45 min on ice. The gel was then stained with SYBR Green I for 30 min avoiding light and photographed by gel imager. […] DhdR can bind to dhdO in the absence of D-2-HG. However, when D-2-HG is present, DhdR will be dissociated from dhdO.

DhdR [1] = target: T1, DhdR; assay: EMSA; 70 nM DhdR, 10 nM dhdO, 30 C; 40 mM D-2-HG inhibits binding; L-2-HG, D-malate, D-lactate, glutarate, 2-ketoglutarate, pyruvate do not; settings: tags: His6 (pETDuet-1, E. coli BL21(DE3))
Procedure: as §1

DhdR [2] = target: T1, DhdR; assay: AlphaScreen-type bead luminescence, HBS-P pH 7.4; D-2-HG dissociates complex, LOD 0.08 uM, range about 0.3-20 uM; settings: tags: His6 (pETDuet-1, E. coli BL21(DE3)); label: 5'-biotin
Procedure: 5 μL biotinylated dhdO-1 fragment, 5 μL DhdR protein and 5 μL solution containing D-2-HG were added into a white 384-well plate, mixed evenly by the oscillation function of a microplate reader, and incubated in dark at room temperature for 30 minutes. Then, 5 μL acceptor beads (20 μg/mL) were added and incubated in dark at room temperature for 30 minutes. Finally, 5 μL donor beads (20 μg/mL) were added and incubated in dark at room temperature for 60 minutes. The luminescence signal was measured by EnSight Multimode Plate Reader. The excitation wavelength was 680 nm and the detection wavelength was 520-620 nm. The background signal without a D-2-HG biosensor was deducted at each emission wavelength.
(§2) According to the method of detecting the luminescence signal described in (2), a gradient D-2-HG solution dissolved in HBS-P buffer was used and mixed with 5 μL of 1 nM biotinylated dhdO-1 fragment, 0.3 nM DhdR protein, donor beads, and acceptor beads. The luminescence signal was detected to plot the dose-response curves.

DhdR [3] = target: T1, DhdR; assay: AlphaScreen-type bead luminescence, HBS-P pH 7.4; D-2-HG dissociates complex, LOD 0.8 uM, range about 2-50 uM; settings: tags: His6 (pETDuet-1, E. coli BL21(DE3)); label: 5'-biotin
Procedure: as §2, with “dhdO” for “dhdO-1”
The combination of the 1 nM biotinylated dhdO fragment, 0.3 nM DhdR protein, 20 μg/mL donor beads, and 20 μg/mL acceptor beads was named as D-2-HG biosensor BD2HG-0, with a limit of detection of 0.8 μM and a detection range of about 2-50 μM.

Molecule | effect on the binding of DhdR to dhdO (binding of DhdR to dhdO) | further results
O=C(O)CCC(=O)C(=O)O [2-ketoglutarate] | could not interfere with the binding of DhdR to dhdO | –
O=C(O)CC[C@@H](O)C(=O)O [D-2-HG, D-2-Hydroxyglutarate] | prevents the binding of DhdR and the target DNA fragment dhdO; also recorded: could inhibit the binding of DhdR to dhdO | –
C[C@@H](O)C(=O)O [D-lactate] | could not interfere with the binding of DhdR to dhdO | –
O=C(O)C[C@@H](O)C(=O)O [D-malate] | could not interfere with the binding of DhdR to dhdO | –
O=C(O)CC[C@H](O)C(=O)O [L-2-HG, L-2-hydroxyglutarate] | could not interfere with the binding of DhdR to dhdO | –
dhdO (dsDNA) DNA 1: GAGTCGCGGCGGCGCGCCGGATCCGGGCTGTCATTGTCAAAAGTTATCAGATAACCTGAAAAGTAGGCCTATAATCGGCGC DNA 2: GCGCCGATTATAGGCCTACTTTTCAGGTTATCTGATAACTTTTGACAATGACAGCCCGGATCCGGCGCGCCGCCGCGACTC | – | binding result (DhdR [1]): binds
biotinylated dhdO-1 (dsDNA) DNA 1: GAGTCGCGGCGGCGCGCCGGATCCGGGCTGTCATTGTCAAAATTTATCAGATAACCTGAAAAGTAGGCCTATAATCGGCGC DNA 2: GCGCCGATTATAGGCCTACTTTTCAGGTTATCTGATAAATTTTGACAATGACAGCCCGGATCCGGCGCGCCGCCGCGACTC | – | binding result (DhdR [2]): binds
biotinylated dhdO (dsDNA) DNA 1: GAGTCGCGGCGGCGCGCCGGATCCGGGCTGTCATTGTCAAAAGTTATCAGATAACCTGAAAAGTAGGCCTATAATCGGCGC DNA 2: GCGCCGATTATAGGCCTACTTTTCAGGTTATCTGATAACTTTTGACAATGACAGCCCGGATCCGGCGCGCCGCCGCGACTC | – | binding result (DhdR [3]): binds
